# Test results as given in patent publication US20230355608A1, “TARGETING POLYCYTHEMIA VERA (PV)-INITIATING CELLS BY BLOCKING LEUKOTRIENE BINDING TO THEIR RECEPTORS” (UNIVERSITY OF MASSACHUSETTS, priority 2020, published 2023).
# “Also recorded” adds a separate entry of the source.
# Experiments:
# [1] = test system: JAK2V617F-induced PV in mice; details: Chen et al., Cancer Research 77(1):164-174; cited from earlier work
# [2] = test system: human CD34+ cells from Polycythemia Vera (PV) patients; details: Chen et al., Cancer Research 77(1):164-174; cited from earlier work
# [3] = test system: primary CD34+ blood cells from two CML patients; details: Yektaei-Karin et al. 2017; cited from earlier work
# HEL cells [4] = test: Cell-cycle progression by FACS (Hoechst and Pyronin); type: cell-based, human
# Method: (§1) A mouse Ba/F3 cell line transduced with pMSCV-IRES-GFP was used as a control. Mouse JAK2V617F-GFP-expressing Ba/F3 cell line was kindly provided by Dr. Ross Levine (Human Oncology and Pathogenesis Program, Memorial Sloan-Kettering Cancer Center, New York, NY). Human JAK2V617F-expressing HEL cell line was purchased from ATCC. Cell lines were cultured in RPMI-1640 medium containing 10% FCS and 50 μmol/L 2-mercaptoethanol. Ba/F3 cell line was cultured in the medium mentioned above with 10 ng/ml IL3. C57BL/6J mice were obtained from The Jackson Laboratory.
# (§2) Cell numbers were counted in duplicates by trypan blue (Sigma-Aldrich) exclusion at 24 h and 48 h, respectively. FACS analysis was applied for cell cycle test using Hoechst and Pyronin (Sigma-Aldrich) staining, and for apoptosis assay staining with Annexin V and 7-AAD (eBiosciences) according to the manufacturer's instructions. Results are expressed as the mean±SD.
# KCL22 cells = details: Yektaei-Karin et al. 2017; cited from earlier work
# Ba/F3-JAK2V617F cells [5] = test: Apoptosis assay by FACS (Annexin V and 7-AAD); type: cell-based, mouse; details: compared with Ba/F3 cells
# Method: as §1, §2
# Ba/F3 cells = test: Cell growth, trypan blue exclusion cell count; type: cell-based, mouse; details: various doses (10-40 μM), 24 and 48 hours
# Method: as §1, §2
# [6] = test system: JAK2V617F-expressing Ba/F3 cells; test: Cell growth, trypan blue exclusion cell count; type: cell-based, mouse; details: various doses (10-40 μM), 24 and 48 hours
# Method: as §1, §2
# KU812 cells = details: Yektaei-Karin et al. 2017; cited from earlier work
# K562 cells = details: Yektaei-Karin et al. 2017; cited from earlier work
# [7] = test system: JAK2V617F-expressing human HEL cells; test: Cell growth, trypan blue exclusion cell count; type: cell-based; details: various doses (10-40 μM), 24 and 48 hours
# Method: as §1, §2
# HEL cells [8] = test: Apoptosis assay by FACS (Annexin V and 7-AAD); type: cell-based, human; details: compared with Ba/F3 cells
# Method: as §1, §2
# [9] = test system: JAK2V617F-induced PV mice
# Method: The bone marrow cells from donor mice, pretreated with 5-fluorouracil (5-FU), were infected with retrovirus containing pMSCV-JAK2V617F-GFP under conditions for the induction of PV as described previously, followed by transplantation of the transduced cells into C57BL/6J recipient mice.
# To test this hypothesis, bone marrow cells (BM) were collected for FCM analysis after 4 months treatment.
# PV model was induced in mice as follows: Bone marrow cells from 5-FU-treated (200 mg/kg) donor mice were transduced twice with JAK2V617F retrovirus in the presence of IL-3, IL-6, and stem cell factor (SCF). The recipient mice received 1,100 cGy lethal gamma irradiation (given by 2 split 550-cGy doses), followed by 2.0×10^6 cells transplantation via tail vein injection.
# Hematopoietic cells were collected from peripheral blood and bone marrow of the PV mice, and red blood cells (RBCs) were eliminated using RBC lysis buffer (pH 7.4). Then the cells were stained with fluorescence-labeled antibodies (Gr−1 for neutrophils, c-kit and Sca−1 for stem cells) and subjected to FACS analysis. These antibodies were purchased from eBioscience Biotechnology. Data were acquired on a FACS Calibur flow cytometric analyzer (Becton Dickinson).
# Water was used as placebo.
# Ba/F3-JAK2V617F cells [10] = test: Cell-cycle progression by FACS (Hoechst and Pyronin); type: cell-based, mouse
# Method: as §1, §2
# parental Ba/F3 cells = test: as above; type: cell-based, mouse; details: parental Ba/F3 cells that do not express JAK2V617F
# Method: as §1, §2
# [11] = PV mice, 150 mg/kg once a day by gavage, vs placebo
# [12] = PV mice, 150 mg/kg once a day by gavage, vs placebo, from 3rd month post treatment
# [13] = PV mice, 150 mg/kg once a day by gavage, vs placebo, 150 mg/kg
# [14] = PV mice, after 4 months treatment, vs placebo
compound,measurement,setting,value
CC(c1cc2ccccc2s1)N(O)C(N)=O (centres unmarked) [Zileuton],development of PV in mice,[1],attenuates the development of PV
same,proliferation of human CD34+ cells from PV patients,[2],reducing proliferation
"CC(C)(O)c1ccccc1CC[C@@H](SCC1(CC(=O)[O-])CC1)c1cccc(/C=C/c2ccc3ccc(Cl)cc3n2)c1.[Na+] [Montelukast, (R-(E))-1-(((1-(3-(2-(7-Chloro-2-quinolinyl)ethenyl)phenyl)-3-(2-(1-hydroxy-1-methylethyl)phenyl)propyl)thio)methyl)-cyclopropaneacetic acid]",cell growth,[3],significantly reduced the growth
same,cell-cycle progression,HEL cells [4],blockade of cell-cycle progression
same,cell growth,KCL22 cells,significantly reduced the growth
same,apoptosis,Ba/F3-JAK2V617F cells [5],more dramatic apoptosis
same,cell growth,Ba/F3 cells,dose-dependent growth inhibition
same,cell growth,[6],dose-dependent growth inhibition
same,cell growth,KU812 cells,significantly reduced the growth
same,cell growth,K562 cells,significantly reduced the growth
same,cell growth,[7],dose-dependent growth inhibition
same,apoptosis,HEL cells [8],more dramatic apoptosis
same,non GFP (GFP-) cells (FIG. 5),"[9]; PV mice vs placebo, at 10 weeks",showed a loss
same,GFP+ cells (FIG. 5),"[9]; PV mice vs placebo, by 6 and 10 weeks post treatment",loss of the GFP+ cells
same,level of PLT,[9]; [11],did not significantly affect
same,level of RBC,[9]; [11],did not significantly affect
same,GFP+Gr-1+ PV cell number in peripheral blood,[9]; [12],increased more slowly
same,GFP+Gr-1+ PV cell percentage in peripheral blood,[9]; [12],increased more slowly
same,HCT,[9]; [13],had an inhibitor compound effect
same,HGB,[9]; [13],had an inhibitor compound effect
same,fibrosis in bone marrow,[9]; [13],efficiently relieved the fibrosis; also recorded: efficiently relieved fibrosis morphology
same,GFP-Gr-1+ cell number in peripheral blood,"[9]; PV mice, 150 mg/kg once a day by gavage, vs placebo, normal cells, 150 mg/kg",didn't show significant difference; also recorded: did not show a significant difference
same,GFP+ PV cell number in BM,[9]; [14],dramatic decrease
same,GFP+ PV cell percentage in BM,[9]; [14],dramatic decrease
same,cell-cycle progression,Ba/F3-JAK2V617F cells [10],blockade of cell-cycle progression
same,cell-cycle progression,parental Ba/F3 cells,no significant cell-cycle block effect
